Patent US20250115600A1, “COVALENT MODIFIERS OF AKT1 AND USES THEREOF” (Terremoto Biosciences, Inc., priority 2022, published 2025)
pIC50: −log10 of the molar value.

Key:
Test in all cases: Live cell target engagement (NanoBRET) in HEK293 cells
Assay type in all cases: cell-based
AKT1 WT = AKT1 WT (Homo sapiens (Human), UniProt P31749); details: HEK293, 2 hours at 37° C.
AKT2 = AKT2 (Homo sapiens (Human), UniProt P31751); details: HEK293, 2 hours at 37° C.
AKT1 E17K = AKT1 E17K (Homo sapiens (Human), UniProt P31749, E17K); details: for pIC50: HEK293, 2 hours at 37° C.
Sequence of AKT1 E17K (P31749 whole entry E17K): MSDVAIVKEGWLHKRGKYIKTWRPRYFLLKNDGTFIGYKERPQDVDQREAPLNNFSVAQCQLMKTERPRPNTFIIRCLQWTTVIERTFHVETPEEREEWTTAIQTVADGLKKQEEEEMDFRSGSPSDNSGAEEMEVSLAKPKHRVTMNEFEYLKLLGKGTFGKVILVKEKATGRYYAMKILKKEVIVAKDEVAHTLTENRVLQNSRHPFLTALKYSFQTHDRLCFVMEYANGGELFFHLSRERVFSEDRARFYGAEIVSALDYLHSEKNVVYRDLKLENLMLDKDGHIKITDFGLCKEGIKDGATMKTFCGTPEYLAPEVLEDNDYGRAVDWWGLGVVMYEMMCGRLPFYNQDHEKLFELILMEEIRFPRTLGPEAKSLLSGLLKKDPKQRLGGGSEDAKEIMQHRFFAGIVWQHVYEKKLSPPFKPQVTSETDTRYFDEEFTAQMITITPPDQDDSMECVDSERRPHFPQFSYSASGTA

Sequence of AKT1 WT (P31749 whole entry): as the sequence (P31749 whole entry E17K) above, with K17E counted along it
Sequence of AKT2 (P31751 whole entry): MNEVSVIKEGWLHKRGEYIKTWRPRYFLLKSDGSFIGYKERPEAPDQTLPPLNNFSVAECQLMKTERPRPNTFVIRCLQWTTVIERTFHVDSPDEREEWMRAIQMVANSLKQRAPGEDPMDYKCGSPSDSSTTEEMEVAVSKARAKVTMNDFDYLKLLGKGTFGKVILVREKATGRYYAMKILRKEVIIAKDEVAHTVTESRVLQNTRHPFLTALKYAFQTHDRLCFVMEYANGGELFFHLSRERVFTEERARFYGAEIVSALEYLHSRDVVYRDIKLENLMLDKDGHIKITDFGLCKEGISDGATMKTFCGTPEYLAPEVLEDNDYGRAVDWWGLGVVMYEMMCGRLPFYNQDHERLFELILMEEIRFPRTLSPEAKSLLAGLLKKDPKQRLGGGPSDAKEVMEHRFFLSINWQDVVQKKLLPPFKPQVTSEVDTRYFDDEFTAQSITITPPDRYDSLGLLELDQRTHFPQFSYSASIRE

Row | pIC50 (AKT1 WT) | pIC50 (AKT2) | AKT1 E17K IC50: Selectivity vs AKT1 WT (AKT1 E17K) | AKT1 E17K IC50: Selectivity vs AKT2 (AKT1 E17K) | pIC50 (AKT1 E17K) | SMILES
1 | > 7.00 | < 6.30 | 6.1 | 85 | > 7.00 | Nc1ncccc1-c1nc2ccc(-c3ccc(N4CCOCC4)cc3)nc2n1-c1ccc(CNC(=O)Cc2ccc(C=O)c(O)c2)cc1 [Example 1, N-(4-(2-(2-aminopyridin-3-yl)-5-(4-morpholinophenyl)-3H-imidazo[4,5-b]pyridin-3-yl)benzyl)-2-(4-formyl-3-hydroxyphenyl)acetamide]
2 | 6.30 to 7.00 | < 6.30 | 3.1 | 19 | > 7.00 | CC(=O)Nc1cccc(-c2ccc3nc(-c4cccnc4N)n(-c4ccc(CNC(=O)Cc5ccc(C=O)c(O)c5)cc4)c3n2)c1 [Example 2, N-(4-(5-(3-acetamidophenyl)-2-(2-aminopyridin-3-yl)-3H-imidazo[4,5-b]pyridin-3-yl)benzyl)-2-(4-formyl-3-hydroxyphenyl)acetamide]
3 | 6.30 to 7.00 | < 6.30 | 2.2 | 36 | 6.30 to 7.00 | Nc1ncccc1-c1nc2ccc(N3CCOCC3)nc2n1-c1ccc(CNC(=O)c2ccc(O)c(C=O)c2)cc1 [Example 3, N-(4-(2-(2-aminopyridin-3-yl)-5-morpholino-3H-imidazo[4,5-b]pyridin-3-yl)benzyl)-3-formyl-4-hydroxybenzamide]
4 | > 7.00 | < 6.30 | 2 | 38 | > 7.00 | Nc1ncccc1-c1nc2ccc(-c3ccccc3)nc2n1-c1ccc(CNC(=O)c2cc(C=O)c(O)cc2F)cc1 [Example 4, N-({4-[2-(2-aminopyridin-3-yl)-5-phenylimidazo[4,5-b]pyridin-3-yl]phenyl}methyl)-2-fluoro-5-formyl-4-hydroxybenzamide]
5 | > 7.00 | < 6.30 | 2.9 | 32 | > 7.00 | Nc1ncccc1-c1nc2ccc(-c3ccccc3)nc2n1-c1ccc(CNC(=O)Cc2ccc(C=O)c(O)c2C(F)(F)F)cc1 [Example 5, N-(4-(2-(2-aminopyridin-3-yl)-5-phenyl-3H-imidazo[4,5-b]pyridin-3-yl)benzyl)-2-(4-formyl-3-hydroxy-2-(trifluoromethyl)phenyl)acetamide]
6 | < 6.30 | < 6.30 | 8.7 | 18 | 6.30 to 7.00 | Nc1ncccc1-c1nc2ccc(C3CC3C(=O)N3CCOCC3)nc2n1-c1ccc(CNC(=O)Cc2ccc(C=O)c(O)c2)cc1 (stereo not drawn) [Example 6, N-({4-[2-(2-aminopyridin-3-yl)-5-[2-(morpholine-4-carbonyl)cyclopropyl]imidazo[4,5-b]pyridin-3-yl]phenyl}methyl)-2-(4-formyl-3-hydroxyphenyl)acetamide]
7 | 6.30 to 7.00 | < 6.30 | 5.8 | 110 | > 7.00 | Nc1ncccc1-c1nc2ccc(C(F)F)nc2n1-c1ccc(CNC(=O)Cc2ccc(C=O)c(O)c2)cc1 [Example 7, N-({4-[2-(2-aminopyridin-3-yl)-5-(difluoromethyl)imidazo[4,5-b]pyridin-3-yl]phenyl}methyl)-2-(4-formyl-3-hydroxyphenyl)acetamide]
8 | 6.30 to 7.00 | < 6.30 | 12 | 120 | > 7.00 | Nc1ncccc1-c1nc2ccc(N3CC4CCC(C3)O4)nc2n1-c1ccc(CNC(=O)Cc2ccc(C=O)c(O)c2)cc1 [Example 8, N-({4-[2-(2-aminopyridin-3-yl)-5-{8-oxa-3-azabicyclo[3.2.1]octan-3-yl}imidazo[4,5-b]pyridin-3-yl]phenyl}methyl)-2-(4-formyl-3-hydroxyphenyl)acetamide]
9 | > 7.00 | < 6.30 | 3.9 | 160 | > 7.00 | Nc1ncccc1-c1nc2ccc(OC3CC3)nc2n1-c1ccc(CNC(=O)Cc2ccc(C=O)c(O)c2)cc1 [Example 10, N-({4-[2-(2-aminopyridin-3-yl)-5-cyclopropoxyimidazo[4,5-b]pyridin-3-yl]phenyl}methyl)-2-(4-formyl-3-hydroxyphenyl)acetamide]
10 | > 7.00 | 6.30 to 7.00 | 3.1 | 28 | > 7.00 | Nc1ncccc1-c1nc2ccc(-c3ccccc3)nc2n1-c1ccc(CC(=O)NC2(c3ccc(C=O)c(O)c3)CC2)cc1 [Example 11, 2-{4-[2-(2-aminopyridin-3-yl)-5-phenylimidazo[4,5-b]pyridin-3-yl]phenyl}-N-[1-(4-formyl-3-hydroxyphenyl)cyclopropyl]acetamide]
11 | > 7.00 | 6.30 to 7.00 | 1.5 | 5.2 | > 7.00 | Nc1ncccc1-c1nc2ccc(-c3cccc(N4CCOCC4)c3)nc2n1-c1ccc(CNC(=O)c2cc(F)c(O)c(C=O)c2)cc1 [Example 12, N-(4-(2-(2-aminopyridin-3-yl)-5-(3-morpholinophenyl)-3H-imidazo[4,5-b]pyridin-3-yl)benzyl)-3-fluoro-5-formyl-4-hydroxybenzamide]
12 | > 7.00 | > 7.00 | 1.2 | 3 | > 7.00 | Nc1ncccc1-c1nc2ccc(-c3cccc(N4CCOCC4)c3)nc2n1-c1ccc(CNC(=O)Cc2ccc(C=O)c(O)c2Cl)cc1 [Example 13, N-({4-[2-(2-aminopyridin-3-yl)-5-[3-(morpholin-4-yl)phenyl]imidazo[4,5-b]pyridin-3-yl]phenyl}methyl)-2-(2-chloro-4-formyl-3-hydroxyphenyl)acetamide]
13 | > 7.00 | 6.30 to 7.00 | 3.3 | 36 | > 7.00 | Cc1c(CC(=O)NCc2ccc(-n3c(-c4cccnc4N)nc4ccc(-c5ccccc5)nc43)cc2)ccc(C=O)c1O [Example 14, N-({4-[2-(2-aminopyridin-3-yl)-5-phenylimidazo[4,5-b]pyridin-3-yl]phenyl}methyl)-2-(4-formyl-3-hydroxy-2-methylphenyl)acetamide]
14 | 6.30 to 7.00 | < 6.30 | 2 | 13 | > 7.00 | Nc1ncccc1-c1nc2ccc(-c3ccccc3)nc2n1-c1ccc(CNC(=O)c2ccc(O)c(C=O)c2F)cc1 [Example 15, N-(4-(2-(2-aminopyridin-3-yl)-5-phenyl-3H-imidazo[4,5-b]pyridin-3-yl)benzyl)-2-fluoro-3-formyl-4-hydroxybenzamide]
15 | 6.30 to 7.00 | < 6.30 | 2.4 | 41 | > 7.00 | Nc1ncccc1-c1nc2ccc(C3CC3)nc2n1-c1ccc(CNCCc2ccc(C=O)c(O)c2)cc1 [Example 16, 4-{2-[({4-[2-(2-aminopyridin-3-yl)-5-cyclopropylimidazo[4,5-b]pyridin-3-yl]phenyl}methyl)amino]ethyl}-2-hydroxybenzaldehyde]
